Data published in patent US20250255874A1, “Methods for Treating Immune Thrombocytopenia By Administering (R)-2-[3-[4-Amino-3-(2-Fluoro-4-Phenoxy-Phenyl)Pyrazolo[3,4-D]Pyrimidin-1-YL]Piperidine-1-Carbonyl]-4-Methyl-4-[4-(Oxetan-3-YL)Piperazin-1-YL]Pent-2-Enentrile” (Principia Biopharma Inc., priority 2022, published 2025).

System: patients with relapsed/refractory immune thrombocytopenia
Experiment: Phase 1/2 study (NCT03395210) Part A, safety;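 also: adverse events graded by NCI CTCAE version 4.0, with worsening of pre-existing conditions counted as adverse events, analysed in the Safety Population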
[1] = patients who initiated at all doses

CC(C)(C=C(C#N)C(=O)N1CCC[C@@H](n2nc(-c3ccc(Oc4ccccc4)cc3F)c3c(N)ncnc32)C1)N1CCN(C2COC2)CC1 [rilzabrutinib, (R)-2-[3-[4-amino-3-(2-fluoro-4-phenoxy-phenyl)pyrazolo[3,4-d]pyrimidin-1-yl]piperidine-1-carbonyl]-4-methyl-4-[4-(oxetan-3-yl)piperazin-1-yl]pent-2-enenitrile]
4 (7%) patients (%): TEAE resulting in study drug discontinuation: gastrointestinal (GI) disorders (in vivo)
2 (4%) patients (%): TEAE resulting in study drug discontinuation: lymphatic system disorders (in vivo)
10%: treatment-related any-grade TEAE: fatigue [1]
3 (5) number of patients (percent): Gingival bleeding, TEAEs Due to Any Cause, Any grade (Safety Population, N = 60) | Gingival bleeding, TEAEs Due to Any Cause, Grade 1 (Safety Population, N = 60) | Nasopharyngitis, TEAEs Due to Any Cause, Any grade (Safety Population, N = 60) | Nausea, TEAEs Due to Any Cause, Grade 2 (Safety Population, N = 60) | Peripheral swelling, TEAEs Due to Any Cause, Any grade (Safety Population, N = 60) | Peripheral swelling, TEAEs Due to Any Cause, Grade 1 (Safety Population, N = 60) | Rash, TEAEs Due to Any Cause, Any grade (Safety Population, N = 60) | Upper abdominal pain, TEAEs Due to Any Cause, Any grade (Safety Population, N = 60) | Upper respiratory tract infection, TEAEs Due to Any Cause, Any grade (Safety Population, N = 60) | Vomiting, TEAEs Due to Any Cause, Grade 1 (Safety Population, N = 60) | Vomiting, Treatment-Related TEAEs, Any grade (Safety Population, N = 60)
1 (2%) patients (%): TEAE resulting in study drug discontinuation: administrative and site conditions (in vivo)
2 (3) number of patients (percent): Fatigue, TEAEs Due to Any Cause, Grade 2 (Safety Population, N = 60) | Headache, Treatment-Related TEAEs, Any grade (Safety Population, N = 60) | Headache, Treatment-Related TEAEs, Grade 1 (Safety Population, N = 60) | Heavy menstrual bleeding, TEAEs Due to Any Cause, Any grade (Safety Population, N = 60) | Hypophosphatemia, TEAEs Due to Any Cause, Any grade (Safety Population, N = 60) | Hypophosphatemia, TEAEs Due to Any Cause, Grade 2 (Safety Population, N = 60) | Muscle spasms, TEAEs Due to Any Cause, Any grade (Safety Population, N = 60) | Muscle spasms, TEAEs Due to Any Cause, Grade 1 (Safety Population, N = 60) | Nasal congestion, TEAEs Due to Any Cause, Any grade (Safety Population, N = 60) | Nasopharyngitis, TEAEs Due to Any Cause, Grade 1 (Safety Population, N = 60) | Nausea, Treatment-Related TEAEs, Grade 2 (Safety Population, N = 60) | Pruritus, TEAEs Due to Any Cause, Any grade (Safety Population, N = 60) | Pruritus, Treatment-Related TEAEs, Any grade (Safety Population, N = 60) | Purpura, TEAEs Due to Any Cause, Any grade (Safety Population, N = 60) | Purpura, TEAEs Due to Any Cause, Grade 1 (Safety Population, N = 60) | Rash, TEAEs Due to Any Cause, Grade 2 (Safety Population, N = 60) | Thrombocytopenia, TEAEs Due to Any Cause, Any grade (Safety Population, N = 60) | Thrombocytopenia, TEAEs Due to Any Cause, Grade 3/4 (Safety Population, N = 60) | Upper abdominal pain, TEAEs Due to Any Cause, Grade 1 (Safety Population, N = 60) | Upper abdominal pain, Treatment-Related TEAEs, Any grade (Safety Population, N = 60) | Upper respiratory tract infection, TEAEs Due to Any Cause, Grade 1 (Safety Population, N = 60) | Urinary tract infection, TEAEs Due to Any Cause, Any grade (Safety Population, N = 60) | Vomiting, Treatment-Related TEAEs, Grade 1 (Safety Population, N = 60)
1 (2) number of patients (percent): Fatigue, Treatment-Related TEAEs, Grade 2 (Safety Population, N = 60) | Frequent bowel movements, TEAEs Due to Any Cause, Any grade (Safety Population, N = 60) | Frequent bowel movements, TEAEs Due to Any Cause, Grade 2 (Safety Population, N = 60) | Frequent bowel movements, Treatment-Related TEAEs, Any grade (Safety Population, N = 60) | Frequent bowel movements, Treatment-Related TEAEs, Grade 2 (Safety Population, N = 60) | Heavy menstrual bleeding, TEAEs Due to Any Cause, Grade 1 (Safety Population, N = 60) | Heavy menstrual bleeding, TEAEs Due to Any Cause, Grade 2 (Safety Population, N = 60) | Hot flush, TEAEs Due to Any Cause, Any grade (Safety Population, N = 60) | Hot flush, TEAEs Due to Any Cause, Grade 2 (Safety Population, N = 60) | Hot flush, Treatment-Related TEAEs, Any grade (Safety Population, N = 60) | Hot flush, Treatment-Related TEAEs, Grade 2 (Safety Population, N = 60) | Hypoesthesia, TEAEs Due to Any Cause, Any grade (Safety Population, N = 60) | Hypoesthesia, TEAEs Due to Any Cause, Grade 2 (Safety Population, N = 60) | Hypoesthesia, Treatment-Related TEAEs, Any grade (Safety Population, N = 60) | Hypoesthesia, Treatment-Related TEAEs, Grade 2 (Safety Population, N = 60) | Hypokalemia, TEAEs Due to Any Cause, Any grade (Safety Population, N = 60) | Hypokalemia, TEAEs Due to Any Cause, Grade 1 (Safety Population, N = 60) | Hypokalemia, Treatment-Related TEAEs, Any grade (Safety Population, N = 60) | Hypokalemia, Treatment-Related TEAEs, Grade 1 (Safety Population, N = 60) | Increased white blood cell count, TEAEs Due to Any Cause, Any grade (Safety Population, N = 60) | Increased white blood cell count, TEAEs Due to Any Cause, Grade 2 (Safety Population, N = 60) | Increased white blood cell count, Treatment-Related TEAEs, Any grade (Safety Population, N = 60) | Increased white blood cell count, Treatment-Related TEAEs, Grade 2 (Safety Population, N = 60) | Maculo-papular rash, TEAEs Due to Any Cause, Any grade (Safety Population, N = 60) | Maculo-papular rash, TEAEs Due to Any Cause, Grade 1 (Safety Population, N = 60) | Maculo-papular rash, Treatment-Related TEAEs, Any grade (Safety Population, N = 60) | Maculo-papular rash, Treatment-Related TEAEs, Grade 1 (Safety Population, N = 60) | Malaise, TEAEs Due to Any Cause, Any grade (Safety Population, N = 60) | Malaise, TEAEs Due to Any Cause, Grade 1 (Safety Population, N = 60) | Malaise, Treatment-Related TEAEs, Any grade (Safety Population, N = 60) | Malaise, Treatment-Related TEAEs, Grade 1 (Safety Population, N = 60) | Micturition urgency, TEAEs Due to Any Cause, Any grade (Safety Population, N = 60) | Micturition urgency, TEAEs Due to Any Cause, Grade 1 (Safety Population, N = 60) | Micturition urgency, Treatment-Related TEAEs, Any grade (Safety Population, N = 60) | Micturition urgency, Treatment-Related TEAEs, Grade 1 (Safety Population, N = 60) | Muscle spasms, Treatment-Related TEAEs, Any grade (Safety Population, N = 60) | Muscle spasms, Treatment-Related TEAEs, Grade 1 (Safety Population, N = 60) | Myalgia, TEAEs Due to Any Cause, Any grade (Safety Population, N = 60) | Myalgia, TEAEs Due to Any Cause, Grade 1 (Safety Population, N = 60) | Myalgia, Treatment-Related TEAEs, Any grade (Safety Population, N = 60) | Myalgia, Treatment-Related TEAEs, Grade 1 (Safety Population, N = 60) | Nasal congestion, TEAEs Due to Any Cause, Grade 1 (Safety Population, N = 60) | Nasal congestion, TEAEs Due to Any Cause, Grade 2 (Safety Population, N = 60) | Nasopharyngitis, TEAEs Due to Any Cause, Grade 2 (Safety Population, N = 60) | Pruritus, TEAEs Due to Any Cause, Grade 1 (Safety Population, N = 60) | Pruritus, TEAEs Due to Any Cause, Grade 2 (Safety Population, N = 60) | Pruritus, Treatment-Related TEAEs, Grade 1 (Safety Population, N = 60) | Pruritus, Treatment-Related TEAEs, Grade 2 (Safety Population, N = 60) | Rash, TEAEs Due to Any Cause, Grade 1 (Safety Population, N = 60) | Rash, Treatment-Related TEAEs, Any grade (Safety Population, N = 60) | Rash, Treatment-Related TEAEs, Grade 1 (Safety Population, N = 60) | Upper abdominal pain, TEAEs Due to Any Cause, Grade 2 (Safety Population, N = 60) | Upper abdominal pain, Treatment-Related TEAEs, Grade 1 (Safety Population, N = 60) | Upper abdominal pain, Treatment-Related TEAEs, Grade 2 (Safety Population, N = 60) | Upper respiratory tract infection, TEAEs Due to Any Cause, Grade 2 (Safety Population, N = 60) | Urinary tract infection, TEAEs Due to Any Cause, Grade 1 (Safety Population, N = 60) | Urinary tract infection, TEAEs Due to Any Cause, Grade 2 (Safety Population, N = 60) | Vomiting, TEAEs Due to Any Cause, Grade 2 (Safety Population, N = 60) | Vomiting, Treatment-Related TEAEs, Grade 2 (Safety Population, N = 60)
1 patient: patient death (unrelated to treatment, 400 mg bid discontinued on day 8, pre-existing Evans syndrome)
4 (7) number of patients (percent): Petechiae, TEAEs Due to Any Cause, Any grade (Safety Population, N = 60) | Petechiae, TEAEs Due to Any Cause, Grade 1 (Safety Population, N = 60) | Vomiting, TEAEs Due to Any Cause, Any grade (Safety Population, N = 60)
30%: treatment-related any-grade TEAE: nausea [1]
21 (35) number of patients (percent): Nausea, TEAEs Due to Any Cause, Any grade (Safety Population, N = 60)
7 (12) number of patients (percent): Headache, TEAEs Due to Any Cause, Any grade (Safety Population, N = 60) | Headache, TEAEs Due to Any Cause, Grade 1 (Safety Population, N = 60)
6 (10) number of patients (percent): Fatigue, Treatment-Related TEAEs, Any grade (Safety Population, N = 60)
32%: treatment-related any-grade TEAE: diarrhea [1]
18 (30) number of patients (percent): Nausea, TEAEs Due to Any Cause, Grade 1 (Safety Population, N = 60) | Nausea, Treatment-Related TEAEs, Any grade (Safety Population, N = 60)
5 (8) number of patients (percent): Fatigue, Treatment-Related TEAEs, Grade 1 (Safety Population, N = 60)
16 (27) number of patients (percent): Nausea, Treatment-Related TEAEs, Grade 1 (Safety Population, N = 60)
